Data reported in US20220289753A1, “SHP2 INHIBITORS” (IRBM S.P.A., priority 2019, published 2022).

Key:
[1] = target: T1, SHP-2 enzyme (Met1-Leu525) (Homo sapiens, UniProt Q06124); experiment: SHP2 inhibition enzymatic assay (DiFMUP substrate, IRS1 peptide activation); format: biochemical; conditions: SHP2 wt; activated by 500 nM IRS1 peptide; 75 μM DiFMUP substrate
T1 construct: synthetized by Origene, Met1-Leu525, cat #TP750155; purchased Origene TP750155
T1 sequence (Q06124 1-525): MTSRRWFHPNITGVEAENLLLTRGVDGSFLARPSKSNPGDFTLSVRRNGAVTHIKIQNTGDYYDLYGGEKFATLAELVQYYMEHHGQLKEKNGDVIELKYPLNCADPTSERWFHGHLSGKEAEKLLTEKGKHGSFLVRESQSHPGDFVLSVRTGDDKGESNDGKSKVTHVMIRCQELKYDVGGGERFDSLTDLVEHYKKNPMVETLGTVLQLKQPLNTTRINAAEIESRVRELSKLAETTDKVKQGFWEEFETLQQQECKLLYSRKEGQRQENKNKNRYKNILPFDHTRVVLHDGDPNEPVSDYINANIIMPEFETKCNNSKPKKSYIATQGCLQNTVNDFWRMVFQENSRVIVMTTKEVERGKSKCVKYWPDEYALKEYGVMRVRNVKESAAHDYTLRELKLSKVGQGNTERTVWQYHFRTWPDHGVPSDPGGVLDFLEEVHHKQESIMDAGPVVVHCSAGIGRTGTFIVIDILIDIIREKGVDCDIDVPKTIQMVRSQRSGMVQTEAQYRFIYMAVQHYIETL
Method in brief: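 SHP-2 (Met1-Leu525, 0.5 nM final) preincubated 30 min with compounds and IRS1 activating peptide in HEPES pH 7.2 buffer with NaCl, KCl, EDTA, tween-20, 5 mM DTT. DiFMUP then added for 30 min at room temperature and fluorescence read. IC50 from four-parameter logistic fit of % inhibition.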

[2] = system: ERK phosphorylation in KYSE-520 cells; experiment: Phospho-ERK cellular assay (Advanced phospho-ERK1/2 (Thr202/Tyr204) TR-FRET kit); format: cell-based; conditions: Homo sapiens, KYSE-520, 2 h, KYSE-520 cells, 2 h at 37° C., TR-FRET; read-out: pERK IC50
Method in brief: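 KYSE-520 cells were treated 2 h at 37° C with serially diluted compounds, then lysed. Phospho-ERK1/2 (Thr202/Tyr204) was detected by TR-FRET after overnight antibody incubation at room temperature. IC50 came from a four-parameter logistic fit; lower signal reflects greater SHP2 inhibition.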

Row | Compound | IC50 [1] | IC50 [2]
1 | COC(=O)c1c(N2CCC3(CC2)Cc2ccccc2[C@H]3N)[nH]c2ncc(Sc3cccc(Cl)c3Cl)nc12 [Example 253, methyl (S)-6-(1-amino-1,3-dihydrospiro[indene-2,4′-piperidin]-1′-yl)-2-((2,3-dichlorophenyl)thio)-5H-pyrrolo[2,3-b]pyrazine-7-carboxylate] | < 0.5 µM | < 1 µM
2 | Cc1ccnc2c(Sc3cnc4[nH]c(N5CCC6(CC5)Cc5ccccc5[C@H]6N)nc4n3)ccnc12 [Example 254, (S)-1′-(5-((8-methyl-1,5-naphthyridin-4-yl)thio)-1H-imidazo[4,5-b]pyrazin-2-yl)-1,3-dihydrospiro[indene-2,4′-piperidin]-1-amine] | < 0.5 µM | < 1 µM
3 | Cn1cc2c(Sc3cnc4[nH]c(N5CCC6(CC5)Cc5ccccc5[C@H]6N)nc4n3)ccnc2n1 [Example 255, (S)-1′-(5-((2-methyl-2H-pyrazolo[3,4-b]pyridin-4-yl)thio)-1H-imidazo[4,5-b]pyrazin-2-yl)-1,3-dihydrospiro[indene-2,4′-piperidin]-1-amine] | < 0.5 µM | < 1 µM
4 | N#Cc1ccc2c(c1)[C@@H](N)C1(CCN(c3nc4nc(Sc5ccnc(N)c5Cl)cnc4[nH]3)CC1)C2 [Example 256, (S)-1-amino-1′-(5-((2-amino-3-chloropyridin-4-yl)thio)-1H-imidazo[4,5-b]pyrazin-2-yl)-1,3-dihydrospiro[indene-2,4′-piperidine]-6-carbonitrile] | < 0.5 µM | > 5 µM
5 | Cn1ncc2nccc(Sc3cnc4[nH]c(N5CCC6(CC5)Cc5ccccc5[C@H]6N)nc4n3)c21 [Example 261, (S)-1′-(5-((1-methyl-1H-pyrazolo[4,3-b]pyridin-7-yl)thio)-1H-imidazo[4,5-b]pyrazin-2-yl)-1,3-dihydrospiro[indene-2,4′-piperidin]-1-amine] | < 0.5 µM | < 1 µM
6 | N[C@@H]1c2cccnc2CC12CCN(c1nc3nc(Sc4ccnc(Cl)c4C(F)(F)F)cnc3[nH]1)CC2 [Example 262, (S)-1′-(5-((2-chloro-3-(trifluoromethyl)pyridin-4-yl)thio)-1H-imidazo[4,5-b]pyrazin-2-yl)-5,7-dihydrospiro[cyclopenta[b]pyridine-6,4′-piperidin]-5-amine] | < 0.5 µM | < 1 µM
7 | CNc1nccc(Sc2cnc3[nH]c(N4CCC5(CC4)Cc4ncccc4[C@H]5N)nc3n2)c1C(F)(F)F [Example 264, (5S)-1′-[5-[2-(methylamino)-3-(trifluoromethyl)pyridin-4-yl]sulfanyl-1H-imidazo[4,5-b]pyrazin-2-yl]spiro[5,7-dihydrocyclopenta[b]pyridine-6,4′-piperidine]-5-amine] | < 0.5 µM | < 1 µM
8 | Nc1cc(Sc2cnc3[nH]c(N4CCC5(CC4)Cc4ccccc4[C@H]5N)nc3n2)c(Cl)c(Cl)n1 [Example 266, (S)-1′-(5-((6-amino-2,3-dichloropyridin-4-yl)thio)-1H-imidazo[4,5-b]pyrazin-2-yl)-1,3-dihydrospiro[indene-2,4′-piperidin]-1-amine] | < 0.5 µM | > 5 µM
9 | Nc1nccc(Sc2cnc3[nH]c(N4CCC5(CC4)Cc4ncccc4[C@H]5N)cc3n2)c1Cl [Example 267, (S)-1′-(2-((2-amino-3-chloropyridin-4-yl)thio)-5H-pyrrolo[2,3-b]pyrazin-6-yl)-5,7-dihydrospiro[cyclopenta[b]pyridine-6,4′-piperidin]-5-amine] | < 0.5 µM | < 1 µM
10 | C[C@@H]1OCC2(CCN(c3cc4nc(Sc5ccnc(N)c5Cl)cnc4[nH]3)CC2)[C@@H]1N [Example 268, (3S,4S)-8-(2-((2-amino-3-chloropyridin-4-yl)thio)-5H-pyrrolo[2,3-b]pyrazin-6-yl)-3-methyl-2-oxa-8-azaspiro[4.5]decan-4-amine] | < 0.5 µM | < 1 µM

Continued, values first:

Row | IC50 [1] | IC50 [2] | Compound
11 | < 0.5 µM | 1 to 5 µM | N[C@@H]1c2ccccc2CC12CCN(c1nc3nc(Sc4cc(Cl)nn5ccnc45)cnc3[nH]1)CC2 [Example 251, (S)-1′-(5-((6-chloroimidazo[1,2-b]pyridazin-8-yl)thio)-1H-imidazo[4,5-b]pyrazin-2-yl)-1,3-dihydrospiro[indene-2,4′-piperidin]-1-amine]
12 | < 0.5 µM | < 1 µM | Nc1nccc(Sc2cnc3[nH]c(N4CCC5(CC4)Cc4cc(CO)ccc4[C@H]5N)nc3n2)c1Cl [Example 252, (S)-(1-amino-1′-(5-((2-amino-3-chloropyridin-4-yl)thio)-1H-imidazo[4,5-b]pyrazin-2-yl)-1,3-dihydrospiro[indene-2,4′-piperidin]-5-yl)methanol]
13 | < 0.5 µM | < 1 µM | Nc1nccc(Sc2cnc3[nH]c(N4CCC5(CC4)Cc4ccc(C6CC6)cc4[C@H]5N)nc3n2)c1Cl [Example 257, (S)-1′-(5-((2-amino-3-chloropyridin-4-yl)thio)-1H-imidazo[4,5-b]pyrazin-2-yl)-6-cyclopropyl-1,3-dihydrospiro[indene-2,4′-piperidin]-1-amine]
14 | < 0.5 µM | < 1 µM | N[C@@H]1c2ccccc2CC12CCN(c1nc3nc(Sc4cccc(Cl)c4Cl)c(Cl)nc3[nH]1)CC2 [Example 259, (S)-1′-(6-chloro-5-((2,3-dichlorophenyl)thio)-1H-imidazo[4,5-b]pyrazin-2-yl)-1,3-dihydrospiro[indene-2,4′-piperidin]-1-amine]
15 | < 0.5 µM | < 1 µM | N#Cc1ccc2c(c1)[C@H](N)C1(CCN(c3nc4nc(Sc5ccnc(N)c5Cl)cnc4[nH]3)CC1)C2 [Example 260, (R)-1-amino-1′-(5-((2-amino-3-chloropyridin-4-yl)thio)-1H-imidazo[4,5-b]pyrazin-2-yl)-1,3-dihydrospiro[indene-2,4′-piperidine]-6-carbonitrile]
16 | < 0.5 µM | 1 to 5 µM | Nc1nccc(Sc2cnc3[nH]c(N4CCC5(CC4)Cc4ccccc4[C@H]5N)cc3n2)c1Cl [Example 265, (S)-1′-(2-((2-amino-3-chloropyridin-4-yl)thio)-5H-pyrrolo[2,3-b]pyrazin-6-yl)-1,3-dihydrospiro[indene-2,4′-piperidin]-1-amine]
17 | < 0.5 µM | < 1 µM | COc1nc(N)ccc1Sc1cnc2[nH]c(N3CCC4(CC3)Cc3ccccc3[C@H]4N)nc2n1 [Example 269, (S)-1′-(5-((6-amino-2-methoxypyridin-3-yl)thio)-1H-imidazo[4,5-b]pyrazin-2-yl)-1,3-dihydrospiro[indene-2,4′-piperidin]-1-amine]
